Earlier results in patent US20170112823A1, “COMPOSITIONS AND METHODS TO TREAT […] RELATED CONDITIONS” (priority 2015, published 2017).

Conditions: frequency of side effect

Compound | side effect: dizziness [%] | side effect: dry mouth [%] | side effect: headache [%] | side effect: nausea [%] | side effects: very commonly, dizziness and drowsiness [%]
CNCC[C@H](Oc1cccc2ccccc12)c1cccs1 [Cymbalta, Duloxetine] | 19 | 23 | 20 | 34 | 
CC(C)C[C@H](CN)CC(=O)O [LYRICA, Pregabalin] |  |  |  |  | > 10
